Patent US12202835B2, “Substituted aromatic ring-linked dioxinoquinazolines and dioxinoquinolines as kinase inhibitors” (BEIJING SCITECH-MQ PHARMACEUTICALS LIMITED, priority 2018, dated 2025)

How the values were obtained:
[1] = target: VEGFR-2 kinase (Homo sapiens (Human), UniProt P35968); experiment: Assay of small molecular compounds for inhibiting the activity of VEGFR-2 kinase (LANCE TR-FRET); assay type: biochemical; settings: read-out: VEGFR2 IC50
How it was run: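 LANCE TR-FRET with human VEGFR-2 (2× stock 0.5 nM) preincubated 30 min with compound (final 2500 to 0.042 nM, 11-point 3-fold), then ULight-JAK-1 (Tyr1023) peptide/ATP added (4× stocks 200 nM/40 μM). Reaction 60 min room temperature, 4% DMSO; IC50 from inhibition-rate curve.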

[2] = target: c-MET kinase (Homo sapiens (Human), UniProt P08581); experiment: Assay of small molecular compounds for inhibiting the activity of c-MET kinase (LANCE TR-FRET); assay type: biochemical; settings: read-out: CMET IC50
Chain of c-MET kinase (P08581 25-1390): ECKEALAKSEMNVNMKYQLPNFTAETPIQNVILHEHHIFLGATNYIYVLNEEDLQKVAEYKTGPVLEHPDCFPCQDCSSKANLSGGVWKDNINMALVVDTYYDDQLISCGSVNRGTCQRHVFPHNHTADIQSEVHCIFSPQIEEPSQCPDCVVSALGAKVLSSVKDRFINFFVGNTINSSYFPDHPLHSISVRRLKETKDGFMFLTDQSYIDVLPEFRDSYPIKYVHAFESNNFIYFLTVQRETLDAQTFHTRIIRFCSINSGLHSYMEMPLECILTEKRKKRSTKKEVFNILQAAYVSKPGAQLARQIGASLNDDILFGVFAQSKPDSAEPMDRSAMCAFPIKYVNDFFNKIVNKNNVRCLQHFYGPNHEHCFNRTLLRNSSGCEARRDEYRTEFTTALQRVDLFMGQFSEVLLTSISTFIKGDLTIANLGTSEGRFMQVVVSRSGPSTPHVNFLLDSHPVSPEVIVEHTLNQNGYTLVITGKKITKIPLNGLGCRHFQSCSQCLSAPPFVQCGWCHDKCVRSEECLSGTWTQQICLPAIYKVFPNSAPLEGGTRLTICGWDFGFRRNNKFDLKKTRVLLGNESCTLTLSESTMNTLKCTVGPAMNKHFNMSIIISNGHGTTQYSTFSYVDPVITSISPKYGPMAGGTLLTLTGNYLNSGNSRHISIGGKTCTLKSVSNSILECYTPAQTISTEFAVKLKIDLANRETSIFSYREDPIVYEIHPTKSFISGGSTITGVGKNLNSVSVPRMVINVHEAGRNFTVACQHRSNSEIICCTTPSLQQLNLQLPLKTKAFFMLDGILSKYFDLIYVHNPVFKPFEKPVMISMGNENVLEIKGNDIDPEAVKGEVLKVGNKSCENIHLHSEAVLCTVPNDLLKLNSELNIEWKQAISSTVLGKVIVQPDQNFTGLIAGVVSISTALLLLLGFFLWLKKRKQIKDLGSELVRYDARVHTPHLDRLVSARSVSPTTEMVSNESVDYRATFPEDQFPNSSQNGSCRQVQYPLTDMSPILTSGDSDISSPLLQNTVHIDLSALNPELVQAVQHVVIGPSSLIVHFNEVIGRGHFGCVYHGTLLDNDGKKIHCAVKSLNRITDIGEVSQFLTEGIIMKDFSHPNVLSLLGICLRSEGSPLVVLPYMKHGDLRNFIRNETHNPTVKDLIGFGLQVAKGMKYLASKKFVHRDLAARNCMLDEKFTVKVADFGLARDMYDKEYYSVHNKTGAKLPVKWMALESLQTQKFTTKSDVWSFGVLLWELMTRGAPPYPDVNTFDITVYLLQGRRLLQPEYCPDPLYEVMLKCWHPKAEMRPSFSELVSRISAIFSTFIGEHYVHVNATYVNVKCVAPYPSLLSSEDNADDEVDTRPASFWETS
How it was run: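 LANCE TR-FRET assay with c-MET at 1 nM final after a 5 min room-temperature preincubation with compound (11-point, 3-fold series, 2500–0.042 nM final, 4% DMSO). ULight-JAK-1 (Tyr1023) peptide (100 nM final) and ATP (10 μM final) reacted 60 min in the dark. Inhibition was taken relative to controls, then IC50 fitted.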

[3] = system: Ba/F3-AXL cells; experiment: Assay for inhibiting the proliferation of Ba/F3-AXL cells (CCK-8); assay type: cell-based; settings: 72 hours of incubation, medium with 100 ng/mL hGas6, CCK-8
Protocol: The values were then imported into Graphpad Prism 5 software for curve fitting, and IC50 was calculated.

Chain of VEGFR-2 kinase (P35968 20-1356): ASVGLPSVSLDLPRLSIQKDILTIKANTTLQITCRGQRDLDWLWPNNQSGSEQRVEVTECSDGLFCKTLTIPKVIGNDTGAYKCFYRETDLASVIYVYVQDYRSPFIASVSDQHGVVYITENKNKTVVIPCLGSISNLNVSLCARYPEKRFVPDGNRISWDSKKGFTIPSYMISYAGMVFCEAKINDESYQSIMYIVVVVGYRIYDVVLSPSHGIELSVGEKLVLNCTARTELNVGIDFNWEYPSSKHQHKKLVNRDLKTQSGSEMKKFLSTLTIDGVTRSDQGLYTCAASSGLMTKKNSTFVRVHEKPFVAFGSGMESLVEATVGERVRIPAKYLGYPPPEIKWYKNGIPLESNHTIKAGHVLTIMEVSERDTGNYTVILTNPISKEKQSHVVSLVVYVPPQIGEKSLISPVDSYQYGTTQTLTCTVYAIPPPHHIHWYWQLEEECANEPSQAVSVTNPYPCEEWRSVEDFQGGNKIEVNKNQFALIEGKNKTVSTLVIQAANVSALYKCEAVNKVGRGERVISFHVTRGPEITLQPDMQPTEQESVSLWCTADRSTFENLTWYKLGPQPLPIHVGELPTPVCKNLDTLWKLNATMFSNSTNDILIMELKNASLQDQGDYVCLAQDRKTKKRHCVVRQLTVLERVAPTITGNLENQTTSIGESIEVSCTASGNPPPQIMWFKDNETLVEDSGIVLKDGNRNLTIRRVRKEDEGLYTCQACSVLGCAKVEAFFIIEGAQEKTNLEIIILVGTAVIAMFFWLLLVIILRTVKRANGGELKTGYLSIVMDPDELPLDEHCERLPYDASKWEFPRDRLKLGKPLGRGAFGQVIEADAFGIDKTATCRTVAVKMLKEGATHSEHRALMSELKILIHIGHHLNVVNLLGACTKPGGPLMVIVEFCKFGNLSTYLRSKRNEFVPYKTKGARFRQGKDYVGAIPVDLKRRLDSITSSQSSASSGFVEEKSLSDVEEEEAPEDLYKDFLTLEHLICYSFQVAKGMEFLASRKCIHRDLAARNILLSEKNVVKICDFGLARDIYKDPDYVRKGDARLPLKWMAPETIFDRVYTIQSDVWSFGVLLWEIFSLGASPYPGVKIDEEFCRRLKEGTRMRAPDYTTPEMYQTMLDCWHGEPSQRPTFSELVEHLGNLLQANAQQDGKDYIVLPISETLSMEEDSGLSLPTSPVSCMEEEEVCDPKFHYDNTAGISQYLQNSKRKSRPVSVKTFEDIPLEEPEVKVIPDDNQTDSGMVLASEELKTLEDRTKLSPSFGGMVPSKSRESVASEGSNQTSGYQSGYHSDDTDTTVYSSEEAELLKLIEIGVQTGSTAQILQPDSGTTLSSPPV

Row | SMILES | IC50 [1] | IC50 [2] | IC50 [3]
1 | COc1ccn(-c2ccc(F)cc2)c(=O)c1C(=O)Nc1ccc(Oc2ccnc3cc(OCCCN4CCOCC4)c4c(c23)OCCO4)c(F)c1 [Example 21, N-(3-fluoro-4-((5-(3-morpholinopropoxy)-2,3-dihydro-[1,4]dioxino[2,3-f]quinolin-10-yl)oxy)phenyl)-1-(4-fluorophenyl)-4-methoxy-2-oxo-1,2-dihydropyridine-3-carboxamide] | ≤ 50 nM | ≤ 50 nM | < 50 nM
2 | O=C(Nc1ccc(Oc2ccnc3cc(OCCCN4CCCCC4)c4c(c23)OCCO4)c(F)c1)c1cccn(-c2ccc(F)cc2)c1=O [Example 31, N-(3-fluoro-4-((5-(3-(piperidin-1-yl)propoxy)-2,3-dihydro-[1,4]dioxino[2,3-f]quinolin-10-yl)oxy)phenyl)-1-(4-fluorophenyl)-2-oxo-1,2-dihydropyridine-3-carboxamide] | ≤ 50 nM | ≤ 50 nM | < 50 nM
3 | Cn1cc(C(=O)Nc2ccc(Oc3ccnc4cc(OCCCN5CCCCC5)c5c(c34)OCCO5)c(F)c2)c(=O)n(-c2ccc(F)cc2)c1=O [Example 39, N-(3-fluoro-4-((5-(3-(piperidin-1-yl)propoxy)-2,3-dihydro-[1,4]dioxino[2,3-f]quinolin-10-yl)oxy)phenyl)-3-(4-fluorophenyl)-1-methyl-2,4-dioxo-1,2,3,4-tetrahydropyrimidine-5-carboxamide] | 50 to 500 nM | ≤ 50 nM | < 50 nM
4 | COCCN(C)CCCOc1cc2nccc(Oc3ccc(NC(=O)c4cn(C(C)C)c(=O)n(-c5ccc(F)cc5)c4=O)cc3F)c2c2c1OCCO2 [Example 95, N-(3-fluoro-4-((5-(3-((2-methoxyethyl)(methyl)amino)propoxy)-2,3-dihydro-[1,4]dioxino[2,3-f]quinolin-10-yl)oxy)phenyl)-3-(4-fluorophenyl)-1-isopropyl-2,4-dioxo-1,2,3,4-tetrahydropyrimidine-5-carboxamide] | 500 to 5000 nM | ≤ 50 nM | < 50 nM
5 | COc1cn(-c2ccc(F)cc2C)nc1C(=O)Nc1ccc(Oc2ccnc3cc(OCCCN4CCOCC4)c4c(c23)OCCO4)c(F)c1 [Example 27, 1-(4-fluoro-2-methylphenyl)-N-(3-fluoro-4-((5-(3-morpholinopropoxy)-2,3-dihydro-[1,4]dioxino[2,3-f]quinolin-10-yl)oxy)phenyl)-4-methoxy-1H-pyrazole-3-carboxamide] | ≤ 50 nM | ≤ 50 nM | < 50 nM
6 | COc1ccn(-c2ccc(F)cc2)c(=O)c1C(=O)Nc1ccc(Oc2ccnc3cc(OCCCC#N)c4c(c23)OCCO4)cc1Cl [Example 132, N-(2-chloro-4-((5-(3-cyanopropoxy)-2,3-dihydro-[1,4]dioxino[2,3-f]quinolin-10-yl)oxy)phenyl)-1-(4-fluorophenyl)-4-methoxy-2-oxo-1,2-dihydropyridine-3-carboxamide] | 500 to 5000 nM | ≤ 50 nM | < 50 nM
7 | COc1cc2nccc(Oc3ccc(NC(=O)c4cccn(-c5ccc(F)cc5)c4=O)cc3F)c2c2c1OCCO2 [Example 17, N-(3-fluoro-4-((5-methoxy-2,3-dihydro-[1,4]dioxino[2,3-f]quinolin-10-yl)oxy)phenyl)-1-(4-fluorophenyl)-2-oxo-1,2-dihydropyridine-3-carboxamide] | ≤ 50 nM | ≤ 50 nM | < 50 nM
8 | CCOc1ccn(Cc2ccccc2)c(=O)c1C(=O)Nc1ccc(Oc2ccnc3cc(OC)c4c(c23)OCCO4)c(F)c1 [Example 117, N-(3-fluoro-4-((5-methoxy-2,3-dihydro-[1,4]dioxino[2,3-f]quinolin-10-yl)oxy)phenyl)-2-oxo-4-ethoxy-1-benzyl-1,2-dihydropyridin-3-carboxamide] | 500 to 5000 nM | ≤ 50 nM | < 50 nM
9 | CC(C)n1cc(C(=O)Nc2ccc(Oc3ccnc4cc(OCCCN(C)C5CCC5)c5c(c34)OCCO5)c(F)c2)c(=O)n(-c2ccc(F)cc2)c1=O [Example 96, N-(3-fluoro-4-((5-(3-((cyclobutyl)(methyl)amino)propoxy)-2,3-dihydro-[1,4]dioxino[2,3-f]quinolin-10-yl)oxy)phenyl)-3-(4-fluorophenyl)-1-isopropyl-2,4-dioxo-1,2,3,4-tetrahydropyrimidine-5-carboxamide] | 500 to 5000 nM | ≤ 50 nM | < 50 nM
10 | Cn1cc(C(=O)Nc2ccc(Oc3ccnc4cc(OCCCN5CCOCC5)c5c(c34)OCCO5)cc2Cl)c(=O)n(-c2ccc(F)cc2)c1=O [Example 98, N-(2-chloro-4-((5-(3-morpholinopropoxy)-2,3-dihydro-[1,4]dioxino[2,3-f]quinolin-10-yl)oxy)phenyl)-3-(4-fluorophenyl)-1-methyl-2,4-dioxo-1,2,3,4-tetrahydropyrimidine-5-carboxamide] | 500 to 5000 nM | 50 to 500 nM | < 50 nM
11 | COc1cc2nccc(Oc3cc(Cl)c(NC(=O)c4cn(C)c(=O)n(-c5ccc(F)cc5)c4=O)cc3F)c2c2c1OCCO2 [Example 116, N-(2-chloro-5-fluoro-4-((5-methoxy-2,3-dihydro-[1,4]dioxino[2,3-f]quinolin-10-yl)oxy)phenyl)-3-(4-fluorophenyl)-1-methyl-2,4-dioxo-1,2,3,4-tetrahydropyrimidine-5-carboxamide] | > 5000 nM | ≤ 50 nM | < 50 nM

More lines, now with the values ahead:

Row | IC50 [1] | IC50 [2] | IC50 [3] | SMILES
12 | 50 to 500 nM | ≤ 50 nM | < 50 nM | CCOc1ccn(-c2ccc(C)cc2)c(=O)c1C(=O)Nc1ccc(Oc2ccnc3cc(OC)c4c(c23)OCCO4)c(F)c1 [Example 112, N-(3-fluoro-4-((5-methoxy-2,3-dihydro-[1,4]dioxino[2,3-f]quinolin-10-yl)oxy)phenyl)-2-oxo-4-ethoxy-1-(4-methylphenyl)-1,2-dihydropyridin-3-carboxamide]
13 | 50 to 500 nM | ≤ 50 nM | < 50 nM | CCOc1ccn(-c2ccc(F)cc2)c(=O)c1C(=O)Nc1ccc(Oc2ccnc3cc(OC)c4c(c23)OCCO4)cc1Cl [Example 126, N-(2-chloro-4-((5-methoxy-2,3-dihydro-[1,4]dioxino[2,3-f]quinolin-10-yl)oxy)phenyl)-1-(4-fluorophenyl)-4-ethoxy-2-oxo-1,2-dihydropyridine-3-carboxamide]
14 | 500 to 5000 nM | ≤ 50 nM | < 50 nM | CCOc1ccn(-c2ccc(F)cc2)c(=O)c1C(=O)Nc1cc(F)c(Oc2ccnc3cc(OC)c4c(c23)OCCO4)cc1Cl [Example 115, N-(2-chloro-5-fluoro-4-((5-methoxy-2,3-dihydro-[1,4]dioxino[2,3-f]quinolin-10-yl)oxy)phenyl)-4-ethoxy-2-oxo-1-(4-fluorophenyl)-1,2-dihydropyridin-3-carboxamide]
15 | 50 to 500 nM | ≤ 50 nM | < 50 nM | CCOc1ccn(-c2ccc(F)cc2)c(=O)c1C(=O)Nc1ccc(Oc2ccnc3cc(OCC(C)(C)O)c4c(c23)OCCO4)c(F)c1 [Example 120, N-(3-fluoro-4-((5-(2-hydroxy-2-methylpropoxy)-2,3-dihydro-[1,4]dioxino[2,3-f]quinolin-10-yl)oxy)phenyl)-4-ethoxy-1-(4-fluorophenyl)-2-oxo-1,2-dihydropyridine-3-carboxamide]
16 | ≤ 50 nM | ≤ 50 nM | < 50 nM | COc1ccn(-c2ccc(F)cc2)c(=O)c1C(=O)Nc1ccc(Oc2ccnc3cc(OCCCN4CCCCC4)c4c(c23)OCCO4)c(F)c1 [Example 32, N-(3-fluoro-4-((5-(3-(piperidin-1-yl)propoxy)-2,3-dihydro-[1,4]dioxino[2,3-f]quinolin-10-yl)oxy)phenyl)-1-(4-fluorophenyl)-4-methoxy-2-oxo-1,2-dihydropyridine-3-carboxamide]
17 | 50 to 500 nM | ≤ 50 nM | < 50 nM | CCOc1ccn(-c2ccc(Cl)cc2)c(=O)c1C(=O)Nc1ccc(Oc2ccnc3cc(OC)c4c(c23)OCCO4)c(F)c1 [Example 113, N-(3-fluoro-4-((5-methoxy-2,3-dihydro-[1,4]dioxino[2,3-f]quinolin-10-yl)oxy)phenyl)-2-oxo-4-ethoxy-1-(4-chlorophenyl)-1,2-dihydropyridin-3-carboxamide]
18 | ≤ 50 nM | ≤ 50 nM | < 50 nM | COCCOc1cc2nccc(Oc3ccc(NC(=O)c4c(OC)ccn(-c5ccc(F)cc5)c4=O)cc3F)c2c2c1OCCO2 [Example 35, N-(3-fluoro-4-((5-(2-methoxyethoxy)-2,3-dihydro-[1,4]dioxino[2,3-f]quinolin-10-yl)oxy)phenyl)-1-(4-fluorophenyl)-4-methoxy-2-oxo-1,2-dihydropyridine-3-carboxamide]
19 | ≤ 50 nM | ≤ 50 nM | < 50 nM | COc1cc2nccc(Oc3ccc(NC(=O)c4c(OC)ccn(-c5ccc(F)cc5)c4=O)cc3F)c2c2c1OCCO2 [Example 18, N-(3-fluoro-4-((5-methoxy-2,3-dihydro-[1,4]dioxino[2,3-f]quinolin-10-yl)oxy)phenyl)-1-(4-fluorophenyl)-4-methoxy-2-oxo-1,2-dihydropyridine-3-carboxamide]
20 | 500 to 5000 nM | 50 to 500 nM | < 50 nM | Cn1cc(C(=O)Nc2ccc(Oc3ccnc4cc(OCC(C)(C)O)c5c(c34)OCCO5)c(F)c2)c(=O)n(-c2ccc(F)cc2)c1=O [Example 121, N-(3-fluoro-4-((5-(2-hydroxy-2-methylpropoxy)-2,3-dihydro-[1,4]dioxino[2,3-f]quinolin-10-yl)oxy)phenyl)-3-(4-fluorophenyl)-1-methyl-2,4-dioxo-1,2,3,4-tetrahydropyrimidine-5-carboxamide]
